ChEMBL document CHEMBL1201862, “PubChem BioAssay data set” (2004)
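Results reflect a 48-hour exposure of cells in 96-well plates to compound at five concentrations. The concentration for 50% growth inhibition is given as GI50.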 Calls of active or inactive are those of the source. Cut-off read from the data, not from the text of the source: active = GI50 up to about 1.1 µM and inactive = higher.

Tests used:
Experiment in all cases: DTP human tumour cell line panel, 48 h
HT-29 = test system: HT-29
SK-MEL-28 = test system: SK-MEL-28
UACC-62 = test system: UACC-62
NCI-H522 = test system: NCI-H522
MDA-MB-231 = test system: MDA-MB-231
T47D = test system: T47D
ACHN = test system: ACHN
SN12C = test system: SN12C
PC-3 = test system: PC-3
U-251 = test system: U-251
EKVX = test system: EKVX
SK-OV-3 = test system: SK-OV-3
K562 = test system: K562
COLO 205 = test system: COLO 205
HOP-62 = test system: HOP-62

Measured: GI50

Cc1ccc(S[C@@H](C)[C@@](O)(CF)CN(Cc2ccccc2)C(=O)C(F)(F)F)cc1
inactive: HT-29 10.3 µM | SK-MEL-28 > 100 µM | UACC-62 13.8 µM | NCI-H522 > 100 µM | MDA-MB-231 22.4 µM | T47D 28.8 µM | ACHN 22.1 µM | SN12C 18.4 µM | PC-3 29.1 µM | U-251 19 µM | EKVX 21.8 µM

CCOC(=O)Nc1cc(NC(/C=N/NC(C)=O)C(=O)OCC)c(OC)cc1NC(C)=O (stereo unspecified)
inactive: HT-29 > 100 µM | SK-MEL-28 > 100 µM | UACC-62 > 100 µM | SK-OV-3 > 100 µM | MDA-MB-231 > 100 µM | T47D > 100 µM | ACHN > 100 µM | SN12C > 100 µM | PC-3 > 100 µM | U-251 > 100 µM | K562 > 100 µM | COLO 205 > 100 µM | EKVX > 100 µM | HOP-62 > 100 µM

COC(=O)c1nsc(OC)c1Cl
inactive: HT-29 > 100 µM | SK-MEL-28 > 100 µM | UACC-62 > 100 µM | SK-OV-3 > 100 µM | MDA-MB-231 > 100 µM | SN12C > 100 µM | PC-3 > 100 µM | U-251 > 100 µM | K562 > 100 µM | COLO 205 > 100 µM | EKVX > 100 µM | HOP-62 > 100 µM

COc1cc(C2OC(N)=C(C#N)C3=C2C(C)CCC3)cc(OC)c1OC (stereo unspecified)
inactive: HT-29 > 100 µM | SK-MEL-28 > 100 µM | UACC-62 > 100 µM | SK-OV-3 80.7 µM | MDA-MB-231 30.3 µM | T47D 2.03 µM | ACHN 97.9 µM | SN12C > 100 µM | PC-3 81.5 µM | U-251 > 100 µM | K562 > 100 µM | COLO 205 > 100 µM | EKVX 37.2 µM | HOP-62 12.7 µM

CCCc1c(OC)c(=O)c2c(OC)cc(OC)c3c4c(OC)cc(OC)c5c(=O)c(OC)c(CCC)c(c1c23)c54
inactive: HT-29 11.4 µM | SK-MEL-28 13.4 µM | UACC-62 11.9 µM | SK-OV-3 15.5 µM | MDA-MB-231 4.38 µM | T47D 4.07 µM | ACHN 15.8 µM | SN12C 18.6 µM | U-251 16 µM | COLO 205 8.47 µM | EKVX 11.8 µM | HOP-62 18 µM

O=S(=O)(c1ccccc1)n1c2cc3cccnc3nc2c2cccnc21
inactive: HT-29 60.4 µM | SK-MEL-28 > 100 µM | NCI-H522 33.3 µM | SK-OV-3 > 100 µM | MDA-MB-231 > 100 µM | ACHN 62.7 µM | SN12C 81.3 µM | PC-3 97.9 µM | U-251 40.5 µM | K562 17.3 µM | COLO 205 72.9 µM | EKVX > 100 µM | HOP-62 60 µM

COc1cc2oc(=O)cc(C)c2cc1OC
inactive: HT-29 > 100 µM | SK-MEL-28 > 100 µM | UACC-62 > 100 µM | SK-OV-3 > 100 µM | MDA-MB-231 > 100 µM | ACHN > 100 µM | SN12C > 100 µM | PC-3 > 100 µM | U-251 > 100 µM | K562 > 100 µM | COLO 205 > 100 µM | EKVX > 100 µM | HOP-62 > 100 µM

CCOC(=O)c1c(O)cc(=O)[nH]c1N1CCOCC1
inactive: HT-29 > 100 µM | SK-MEL-28 > 100 µM | UACC-62 > 100 µM | SK-OV-3 > 100 µM | T47D > 100 µM | ACHN > 100 µM | SN12C > 100 µM | PC-3 > 100 µM | U-251 > 100 µM | K562 > 100 µM | COLO 205 > 100 µM | EKVX > 100 µM | HOP-62 > 100 µM

CC1(C)C2CCC1(C)C(N/C(Sc1ccccc1)=C(/C(Cl)=C(Cl)Cl)[N+](=O)[O-])C2 (stereo unspecified)
inactive: HT-29 10.4 µM | SK-MEL-28 12.4 µM | UACC-62 9.14 µM | SK-OV-3 13.8 µM | MDA-MB-231 10.4 µM | T47D 13.5 µM | ACHN 13.5 µM | SN12C 13.9 µM | PC-3 9.06 µM | U-251 11.4 µM | K562 6.35 µM | EKVX 13.4 µM | HOP-62 18.5 µM

C#CCN(Cc1ccc2[nH]c(N)nc(=O)c2c1)c1ccc(C(=O)NC(CCC(=O)O)C(=O)O)cc1 (stereo unspecified)
inactive: HT-29 > 100 µM | SK-MEL-28 > 100 µM | SK-OV-3 > 100 µM | MDA-MB-231 > 100 µM | T47D 9.35 µM | ACHN 3.82 µM | SN12C 6.71 µM | PC-3 > 100 µM | U-251 50.9 µM | COLO 205 12 µM | EKVX > 100 µM | HOP-62 23.4 µM

Cc1ncc([N+](=O)[O-])n1CCNC(=O)Cn1ccnc1[N+](=O)[O-]
inactive: HT-29 > 100 µM | SK-MEL-28 > 100 µM | UACC-62 > 100 µM | NCI-H522 > 100 µM | SK-OV-3 > 100 µM | MDA-MB-231 > 100 µM | T47D > 100 µM | ACHN > 100 µM | SN12C > 100 µM | PC-3 > 100 µM | U-251 > 100 µM | K562 > 100 µM | COLO 205 > 100 µM | HOP-62 > 100 µM
